Key:
Cyclooxygenase = Cyclooxygenase inhibitory effect (14C-arachidonic acid to prostaglandin E2, seminal vesicular gland microsomes); assay type: biochemical; settings: prostaglandin E2 by thin layer chromatography
Protocol: (1) Cyclooxygenase Inhibitory effect
This assay was carried out by the method described in Russell J. Taylor et al., Biochem. Pharmacol., 25, 2479-2484 (1976).
^14 C-arachidonic acid was reacted with seminal vesicular gland microsomes and the test drugs at various concentrations over a predetermined period of time and the obtained prostaglandin E2 was separated by thin layer chromatography. The radioactivity of prostaglandin E2 was determined by liquid scintillation counter. The IC50 values were calculated by the comparison with the radioactivity of the control.

5-Lipoxygenase = biological target: T1, 5-Lipoxygenase (Cavia porcellus, UniProt A0A286X958); assay: 5-Lipoxygenase inhibitory effect (14C-arachidonic acid to 5-hydroxyeicosatetraenoic acid, cytosol of polymorphonuclear leukocytes); assay type: biochemical; settings: guinea pig polymorphonuclear leukocyte cytosol; 5-hydroxyeicosatetraenoic acid by thin layer chromatography
T1 construct: the polymorphonuclear leukocytes were collected and the cytosol fraction was obtained as an enzyme source; endogenous in cells; host or cells: guinea pig peritoneal polymorphonuclear leukocytes (casein-elicited), cytosol fraction
T1 sequence (A0A286X958 1-674): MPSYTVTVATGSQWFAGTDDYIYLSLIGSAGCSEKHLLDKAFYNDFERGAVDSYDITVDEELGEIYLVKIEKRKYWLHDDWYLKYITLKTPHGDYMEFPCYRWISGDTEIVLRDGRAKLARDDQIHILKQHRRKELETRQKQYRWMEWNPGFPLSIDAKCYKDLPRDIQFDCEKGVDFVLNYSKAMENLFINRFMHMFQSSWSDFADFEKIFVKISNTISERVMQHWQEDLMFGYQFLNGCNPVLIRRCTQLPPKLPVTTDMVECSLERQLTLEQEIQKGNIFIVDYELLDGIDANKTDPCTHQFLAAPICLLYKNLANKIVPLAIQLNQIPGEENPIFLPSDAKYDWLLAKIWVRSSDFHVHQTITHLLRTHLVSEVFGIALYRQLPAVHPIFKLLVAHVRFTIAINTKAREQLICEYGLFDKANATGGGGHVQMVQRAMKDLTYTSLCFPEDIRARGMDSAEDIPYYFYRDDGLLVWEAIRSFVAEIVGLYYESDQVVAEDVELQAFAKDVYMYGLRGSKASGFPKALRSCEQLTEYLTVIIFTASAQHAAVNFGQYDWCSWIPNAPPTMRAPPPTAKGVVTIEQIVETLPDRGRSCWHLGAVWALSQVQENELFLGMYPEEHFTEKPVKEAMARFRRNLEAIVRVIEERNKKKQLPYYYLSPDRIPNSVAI
Protocol: (2) 5-Lipoxygenase inhibitory effect
The assay was carried out by the method described in Kenkichi Ochi et al., J. Biol. Chem., 258, 5754-5758 (1983).
Casein was injected into the abdominal cavity of a guinea pig, and the polymorphonuclear leukocytes were collected and the cytosol fraction was obtained as an enzyme source. ^14 C-arachidonic acid was reacted with the enzyme and the test drugs at various concentrations over a predetermined period of time. The obtained 5-hydroxyeicosatetraenoic acid was separated by thin layer chromatography and the radioactivity was determined. The IC50 values were calculated by the comparison with the radioactivity of the control.

IC50 (Cyclooxygenase) [nM]	IC50 (5-Lipoxygenase) [nM]	Structure (SMILES)
66	5900	CCCCCCCCCCN1CCN(C(=O)CNC(=O)Cc2onc(-c3ccc(OC)cc3)c2-c2ccc(OC)cc2)CC1 [Compound 8]
146	2500	COc1ccc(-c2noc(CC(=O)NC(CN3CCN(CCCCCCCCCCO)CC3)c3ccccc3)c2-c2ccc(OC)cc2)cc1 (stereo not drawn) [Compound 7]
121	1800	COc1ccc(-c2noc(CC(=O)NCCN3CCN(CCCCCCCCCCO)CC3)c2-c2ccc(OC)cc2)cc1 [Compound 6]

Source: patent US5318970A, “Isoxazole compounds, pharmaceutically acceptable salts thereof and medical uses thereof” (Taiho Pharmaceutical Co., Ltd., priority 1990, dated 1994)
